Results: patent US6737383B1, “Herbicidal oxadiazolidines” (priority 1999, dated 2004)

What was measured:
cocklebur = assay: Test B pre/postemergence cocklebur; type: in vivo, Xanthium strumarium
Description: (§1) Seeds of bedstraw (Galium aparine), blackgrass (Alopecurus myosuroides), surinam grass (Brachiaria decumbens), cocklebur (Xanthium strumarium), corn (Zea mays), crabgrass (Digitaria sanguinalis), giant foxtail (Setaria faberii), morningglory (Ipomoea hederacea), pigweed (Amaranthus retroflexus), rape (Brassica napus), soybean (Glycine max), sugar beet (Beta vulgaris), velvetleaf (Abutilon theophrasti), wheat (Triticum aestivum), wild oat (Avena fatua) and purple nutsedge (Cyperus rotundus) tubers were planted and treated preemnergence with test chemicals formulated in a non-phytotoxic solvent mixture which included a surfactant.
(§2) At the same time, these crop and weed species were also treated with postemergence applications of test chemicals formulated in the same manner. Plants ranged in height from 2 to 18 cm (1- to 4-leaf stage) for postemergence treatments. Plant species in the flood test consisted of rice (Oryza sativa), smallflower flatsedge (Cyperus difformis), duck salad (Heteranthera limosa) and bamyardgrass (Echinochloa crus-galli) grown to the 2-leaf stage for testing. Treated plants and controls were maintained in a greenhouse for twelve to sixteen days, after which all species were compared to controls and visually evaluated. Plant response ratings, summarized in Table B, are based on a scale of 0 to 10 where 0 is no effect and 10 is complete control. A dash (−) response means no test result.

bedstraw = assay: Test B pre/postemergence bedstraw; type: in vivo, Galium aparine
Description: as §1, §2

crabgrass = assay: Test B pre/postemergence crabgrass; type: in vivo, Digitaria sanguinalis
Description: as §1, §2

soybean = assay: Test B pre/postemergence soybean; type: in vivo, Glycine max
Description: as §1, §2

pigweed = assay: Test B pre/postemergence pigweed; type: in vivo, Amaranthus retroflexus
Description: as §1, §2

blackgrass = assay: Test B pre/postemergence blackgrass; type: in vivo, Alopecurus myosuroides
Description: as §1, §2

purple nutsedge = assay: Test B pre/postemergence purple nutsedge; type: in vivo, Cyperus rotundus
Description: as §1, §2

morningglory = assay: Test B pre/postemergence morningglory; type: in vivo, Ipomoea hederacea
Description: as §1, §2

surinam grass = assay: Test B pre/postemergence surinam grass; type: in vivo, Brachiaria decumbens
Description: as §1, §2

wheat = assay: Test B pre/postemergence wheat; type: in vivo, Triticum aestivum
Description: as §1, §2

corn = assay: Test B pre/postemergence corn; type: in vivo, Zea mays
Description: as §1, §2

giant foxtail = assay: Test B pre/postemergence giant foxtail; type: in vivo, Setaria faberii
Description: as §1, §2

sugar beet = assay: Test B pre/postemergence sugar beet; type: in vivo, Beta vulgaris
Description: as §1, §2

velvetleaf = assay: Test B pre/postemergence velvetleaf; type: in vivo, Abutilon theophrasti
Description: as §1, §2

wild oat = assay: Test B pre/postemergence wild oat; type: in vivo, Avena fatua
Description: as §1, §2

rape = assay: Test B pre/postemergence rape; type: in vivo, Brassica napus
Description: as §1, §2

[1] = Preemergence, Rate 62 g/ha, scale of 0 to 10 where 0 is no effect and 10 is complete control
[2] = Preemergence, Rate 250 g/ha, scale of 0 to 10 where 0 is no effect and 10 is complete control
[3] = Preemergence, Rate 500 g/ha, scale of 0 to 10 where 0 is no effect and 10 is complete control
[4] = Rate 62 g/ha, Postemergence, scale of 0 to 10 where 0 is no effect and 10 is complete control
[5] = Rate 125 g/ha, Postemergence, scale 0 to 10
[6] = Rate 125 g/ha, Preemergence, scale of 0 to 10 where 0 is no effect and 10 is complete control
[7] = Rate 500 g/ha, Postemergence, scale 0 to 10, 0 no effect, 10 complete control

In the case of `CC(C)N(C(=O)n1oc(=O)n(C(C)C(=O)c2ccccc2)c1=O)c1ccc(F)cc1` (stereo not shown) [Compound 260], the “Cocklebur plant response rating” value (cocklebur; [1]) is reported as 0, the “Cocklebur plant response rating” value (cocklebur; [2]) is reported as 0 and the “Plant response rating, Cocklebur” value (cocklebur; [3]) is reported as 0. For the same molecule, the “Cocklebur plant response rating” value (cocklebur; [4]) was 0, the “Cocklebur plant response rating” value (cocklebur; [5]) was 0 and the “Cocklebur plant response rating” value (cocklebur; [6]) was 0. For the same molecule, the “Plant response rating (0 to 10; 0 is no effect, 10 is complete control), Cocklebur” value (cocklebur; Rate 250 g/ha, Postemergence) was 0, the “Cocklebur plant response rating” value (cocklebur; [7]) was 0 and the “Bedstraw plant response rating” value (bedstraw; [1]) was 0. The “Plant response rating, Bedstraw” value (bedstraw; [3]) was 5, the “Bedstraw plant response rating” value (bedstraw; [4]) was 6 and the “Bedstraw plant response rating” value (bedstraw; [5]) was 7. For the same molecule, the “Bedstraw plant response rating” value (bedstraw; [6]) was 0, the “Crabgrass plant response rating” value (crabgrass; [1]) was 0 and the “Crabgrass plant response rating” value (crabgrass; [2]) was 6. For the same molecule, the “Plant response rating, Crabgrass” value (crabgrass; [3]) was 9, the “Crabgrass plant response rating” value (crabgrass; [6]) was 2 and the “Plant response rating (0 to 10; 0 is no effect, 10 is complete control), Crabgrass” value (crabgrass; Rate 250 g/ha, Postemergence) was 0. The “Crabgrass plant response rating” value (crabgrass; [7]) was 0, the “Soybean plant response rating” value (soybean; [1]) was 0 and the “Soybean plant response rating” value (soybean; [2]) was 0. For the same molecule, the “Plant response rating, Soybean” value (soybean; [3]) was 0, the “Soybean plant response rating” value (soybean; [6]) was 0 and the “Soybean plant response rating” value (soybean; [7]) was 1. For the same molecule, the “Redroot pigweed plant response rating” value (pigweed; [1]) was 0, the “Redroot pigweed plant response rating” value (pigweed; [2]) was 4 and the “Plant response rating, Redroot pigweed” value (pigweed; [3]) was 4. The “Redroot pigweed plant response rating” value (pigweed; [6]) was 0, the “Plant response rating (0 to 10; 0 is no effect, 10 is complete control), Redroot pigweed” value (pigweed; Rate 250 g/ha, Postemergence) was 3 and the “Redroot pigweed plant response rating” value (pigweed; [7]) was 6. The “Blackgrass plant response rating” value (blackgrass; [1]) was 0, the “Blackgrass plant response rating” value (blackgrass; [2]) was 2 and the “Plant response rating, Blackgrass” value (blackgrass; [3]) was 3. For the same molecule, the “Blackgrass plant response rating” value (blackgrass; [4]) was 0, the “Blackgrass plant response rating” value (blackgrass; [5]) was 0 and the “Blackgrass plant response rating” value (blackgrass; [6]) was 0. The “Plant response rating (0 to 10; 0 is no effect, 10 is complete control), Blackgrass” value (blackgrass; Rate 250 g/ha, Postemergence) was 0, the “Blackgrass plant response rating” value (blackgrass; [7]) was 0 and the “Nutsedge plant response rating” value (purple nutsedge; [1]) was 0. For the same molecule, the “Nutsedge plant response rating” value (purple nutsedge; [2]) was 0, the “Nutsedge plant response rating” value (purple nutsedge; [6]) was 0 and the “Plant response rating (0 to 10; 0 is no effect, 10 is complete control), Nutsedge” value (purple nutsedge; Rate 250 g/ha, Postemergence) was 0. For the same molecule, the “Nutsedge plant response rating” value (purple nutsedge; [7]) was 0, the “Morningglory plant response rating” value (morningglory; [1]) was 0 and the “Morningglory plant response rating” value (morningglory; [2]) was 0. For the same molecule, the “Plant response rating, Morningglory” value (morningglory; [3]) was 0, the “Morningglory plant response rating” value (morningglory; [6]) was 0 and the “Plant response rating (0 to 10; 0 is no effect, 10 is complete control), Morningglory” value (morningglory; Rate 250 g/ha, Postemergence) was 3. The “Morningglory plant response rating” value (morningglory; [7]) was 4, the “B. signalgrass plant response rating” value (surinam grass; [1]) was 0 and the “B. signalgrass plant response rating” value (surinam grass; [2]) was 0. For the same molecule, the “Plant response rating, B. signalgrass” value (surinam grass; [3]) was 3, the “B. signalgrass plant response rating” value (surinam grass; [4]) was 0 and the “B. signalgrass plant response rating” value (surinam grass; Rate 125 g/ha, Postemergence, scale 0 (no effect) to 10 (complete control)) was 0. The “B. signalgrass plant response rating” value (surinam grass; [6]) was 0, the “Plant response rating (0 to 10; 0 is no effect, 10 is complete control), B. signalgrass” value (surinam grass; Rate 250 g/ha, Postemergence) was 0 and the “B. signalgrass plant response rating” value (surinam grass; [7]) was 0. For the same molecule, the “Wheat plant response rating” value (wheat; [1]) was 0, the “Wheat plant response rating” value (wheat; [2]) was 0 and the “Plant response rating, Wheat” value (wheat; [3]) was 0. The “Wheat plant response rating” value (wheat; [6]) was 0, the “Wheat plant response rating” value (wheat; [7]) was 0 and the “Corn plant response rating” value (corn; [1]) was 0. The “Corn plant response rating” value (corn; [2]) was 0, the “Plant response rating, Corn” value (corn; [3]) was 0 and the “Corn plant response rating” value (corn; [4]) was 0. For the same molecule, the “Corn plant response rating” value (corn; [5]) was 0, the “Corn plant response rating” value (corn; [6]) was 0 and the “Plant response rating (0 to 10; 0 is no effect, 10 is complete control), Corn” value (corn; Rate 250 g/ha, Postemergence) was 0. The “Corn plant response rating” value (corn; [7]) was 0, the “Giant foxtail plant response rating” value (giant foxtail; [1]) was 3 and the “Giant foxtail plant response rating” value (giant foxtail; [2]) was 8. The “Plant response rating, Giant foxtail” value (giant foxtail; [3]) was 10, the “Giant foxtail plant response rating” value (giant foxtail; [6]) was 7 and the “Plant response rating (0 to 10; 0 is no effect, 10 is complete control), Giant foxtail” value (giant foxtail; Rate 250 g/ha, Postemergence) was 0. The “Giant foxtail plant response rating” value (giant foxtail; [7]) was 0, the “Sugarbeets plant response rating” value (sugar beet; [1]) was 0 and the “Sugarbeets plant response rating” value (sugar beet; [2]) was 0. For the same molecule, the “Plant response rating, Sugarbeets” value (sugar beet; [3]) was 0, the “Sugarbeets plant response rating” value (sugar beet; [6]) was 0 and the “Sugarbeets plant response rating” value (sugar beet; [7]) was 3. For the same molecule, the “Velvetleaf plant response rating” value (velvetleaf; [1]) was 0, the “Velvetleaf plant response rating” value (velvetleaf; [2]) was 0 and the “Plant response rating, Velvetleaf” value (velvetleaf; [3]) was 0. The “Velvetleaf plant response rating” value (velvetleaf; [6]) was 0, the “Velvetleaf plant response rating” value (velvetleaf; [7]) was 1 and the “Wild oats plant response rating” value (wild oat; [1]) was 0. The “Wild oats plant response rating” value (wild oat; [2]) was 0, the “Plant response rating, Wild oats” value (wild oat; [3]) was 0 and the “Wild oats plant response rating” value (wild oat; [6]) was 0. The “Wild oats plant response rating” value (wild oat; [7]) was 0, the “Rape plant response rating” value (rape; [1]) was 0 and the “Rape plant response rating” value (rape; [2]) was 0. For the same molecule, the “Plant response rating, Rape” value (rape; [3]) was 0, the “Rape plant response rating” value (rape; [6]) was 0 and the “Plant response rating (0 to 10; 0 is no effect, 10 is complete control), Rape” value (rape; Rate 250 g/ha, Postemergence) was 0. The “Rape plant response rating” value (rape; [7]) was 0.
